Marks after values point to notes of the source that are not given here. Where a SMILES comes first, the peptide text is derived from it. Bridges are numbered along the chain shown (N, C = ends). [ ]: non-standard residue; d: D form. The star is where a group is joined. X2 = O=C(O)C1CCC(CN2C(=O)CC(*)C2=O)CC1; dPhg = N[C@@H](C(=O)O)c1ccccc1
Key:
[1] = target: T1, αvβ3 (Homo sapiens, UniProt P05106+P06756); assay: Competitive integrin binding assay (isoDGR/STV-HRP) on αvβ3-coated plates; conditions: for ratio of integrin Ki/αvβ3 Ki (αvβ3): number in parenthesis
T1 construct: purchased Immunological Sciences (Rome, Italy)
Method: (§1) A conjugate consisting of biotinylated acetyl-Ciso[…] (SEQ ID NO:36) peptide complexed with streptavidin-peroxidase conjugate (isoDGR/STV-HRP) was first prepared as described previously. […] Each mixture was then added to microtiter plates coated with integrins (αvβ3, αvβ5, αvβ6, […], or α5β1) and incubated for 2 h at room temperature. After washing, each well was incubated with 70 μl of chromogenic solution (o-phenylenediamine dihydrochloride) for 20 min, at room temperature. The chromogenic reaction was stopped by adding an equal volume of 1 N sulfuric acid. The absorbance at 490 nm was then measured using a microtiter plate reader.
(§2) The binding affinity and selectivity of each peptide for different integrins were then analyzed by competitive binding assay, using αvβ3-, αvβ5-, αvβ6-, αvβ8- and α5β1-coated plates and isoDGR/STV-HRP, an ac-isoDGR-2C/peroxidase complex, as competitor.

[2] = target: T2, αvβ6 (Homo sapiens, UniProt P06756+P18564); assay: Competitive integrin binding assay (isoDGR/STV-HRP) on αvβ6-coated plates; conditions: for Ki: mean ± SE; for ratio of integrin Ki/αvβ3 Ki (αvβ6): number in parenthesis
T2 construct: purchased R&D System (Minneapolis, Minn.)
Method: as §1, §2

[3] = target: T3, αvβ8 (Homo sapiens, UniProt P06756+P26012); assay: Competitive integrin binding assay (isoDGR/STV-HRP) on αvβ8-coated plates; conditions: for ratio of integrin Ki/αvβ3 Ki (αvβ8): number in parenthesis
T3 construct: purchased R&D System (Minneapolis, Minn.)
Method: as §1, §2

[4] = target: T4, αvβ5 (Homo sapiens, UniProt P06756+P18084); assay: Competitive integrin binding assay (isoDGR/STV-HRP) on αvβ5-coated plates; conditions: for ratio of integrin Ki/αvβ3 Ki (αvβ5): number in parenthesis
T4 construct: purchased Immunological Sciences (Rome, Italy)
Method: as §1, §2

[5] = target: T5, α5β1 (Homo sapiens, UniProt P05556+P08648); assay: Competitive integrin binding assay (isoDGR/STV-HRP) on α5β1-coated plates; conditions: for ratio of integrin Ki/αvβ3 Ki (α5β1): number in parenthesis
T5 construct: purchased Immunological Sciences (Rome, Italy)
Method: as §1, §2

[6] = system: EA.hy926 endothelial cells; assay: Endothelial cell adhesion to vitronectin-coated plates; type: cell-based, human; conditions: EA.hy926, substance added to supernatant
Method: Endothelial cell (EA.hy926) adhesion to microtiter plates coated with human vitronectin was carried out as described ([25]). IsoDGR#1 and isoDGR#3 were added to the supernatant during cell adhesion. […] Mean±S.E (n=3).
Cell adhesion was quantified by spectrophotometric measurement (A570 nm).

[7] = Asn deamidation of NGR peptides by mass spectrometry; type: physicochemical; conditions: 37° C., 0.1 M ammonium bicarbonate buffer, pH 8.5
Method: Orbitrap-ESI mass spectrometry analysis of NGR#3 and NGR-2C at various time points after incubation at 37° C. in 0.1 M ammonium bicarbonate buffer (Ambic), pH 8.5. During the analyses the NGR#3 forms dimers. +0 (no deamidation), +0.5 (one deamidation/molecule) and +1 (two deamidations/molecule) correspond to the difference between found and expected molecular masses in daltons.
It is well known that NGR may undergo Asn deamidation generating isoDGR, an integrin binding motif. To assess whether the molecular scaffold of NGR might affect the deamidation rate we analyzed the molecular masses of NGR#3 and […] (SEQ ID NO:37) (NGR-2C) before and after incubation at 37° C. in 0.1 M ammonium bicarbonate buffer, pH 8.5 (AmBic) for various times. […] The extent of binding of heat-treated NGR-HSA was very similar to that obtained with isoDGR#3-HSA, i.e. a conjugate prepared using a similar peptide having isoAsp in place of Asn (FIG. 17B, right).

Row | Molecule | ratio of integrin Ki/αvβ3 Ki (αvβ3) [1] | ratio of integrin Ki/αvβ3 Ki (αvβ6) [2] | ratio of integrin Ki/αvβ3 Ki (αvβ8) [3] | ratio of integrin Ki/αvβ3 Ki (αvβ5) [4] | ratio of integrin Ki/αvβ3 Ki (α5β1) [5] | further results
1 | N=C(N)NCCC[C@@H]1NC(=O)CNC(=O)C[C@@H](C(=O)O)NC(=O)[C@H](CSC2CC(=O)N(CC3CCC(C(=O)O)CC3)C2=O)NC(=O)CNC(=O)CNC1=O (stereo partly drawn) [isoDGR#3-P2] (GRGGC(X2)D-OH; lactam N-6) | (1) | (26) | (24) | – | – | Ki [2]: 468 nM; Ki ([3]; mean ± SE): 430 nM
2 | N=C(N)NCCC[C@@H]1NC(=O)CNC(=O)C[C@@H](C(=O)O)NC(=O)CNC(=O)[C@H](CS)NC(=O)CNC1=O [isoDGR#1, c(CGisoDGRG)] (GRGCGD-OH; lactam N-6) | (1)^c | (14) | – | (2) | (3) | inhibition of endothelial cell adhesion to vitronectin [6]: could efficiently inhibit endothelial cell adhesion
3 | *AV(0:1): sulfo-SMCC-activated avidin lacking the peptide [reference compound] | – | – | – | – | – | Ki ([1]; mean ± SE): > 2500 nM; Ki ([4]; mean ± SE): > 2500 nM; Ki [2]: > 2500 nM; Ki ([5]; mean ± SE): > 2500 nM
4 | N=C(N)NCCC[C@@H]1NC(=O)CNC(=O)C[C@@H](C(=O)O)NC(=O)CNC(=O)[C@H](CSC2CC(=O)N(CC3CCC(C(=O)O)CC3)C2=O)NC(=O)CNC1=O (some centres unmarked) [isoDGR#1-P2] (GRGC(X2)GD-OH; lactam N-6) | (1) | (80) | (318) | (1.6) | (9.6) | –
5 | c(CNGRGG) (cyclic; Cyclic peptide) [NGR#3] | – | – | – | – | – | deamidation rate [7]: reduce the deamidation rate
6 | N=C(N)NCCC[C@@H]1NC(=O)CNC(=O)C[C@@H](C(=O)O)NC(=O)[C@H](CS)NC(=O)CNC(=O)CNC1=O [isoDGR#3, c(CisoDGRGG)] (GRGGCD-OH; lactam N-6) | (1) | (1.3) | (1.2) | (1) | (0.5) | inhibition of endothelial cell adhesion to vitronectin [6]: could efficiently inhibit endothelial cell adhesion
7 | N=C(N)NCCC[C@@H]1NC(=O)CNC(=O)C[C@@H](C(=O)O)NC(=O)CNC(=O)[C@H](CS)NC(=O)[C@@H](c2ccccc2)NC1=O [isoDGR#5, c(CGisoDGRphg)] (GR[dPhg]CGD-OH; lactam N-6) | (1) | (3.7) | (42) | (1.30) | (3.26) | –
8 | CNGRCGVRY [NGR-2C, reference compound] | – | – | – | – | – | deamidation rate [7]: faster than that of NGR#3

From patent publication US9561289B2, “Peptides for inhibiting tumor growth” (OSPEDALE SAN RAFFAELE SRL, priority 2012, dated 2017)
